Measurements taken from paper PMC6409085, “Three odorant-binding proteins are involved in the behavioral response of Sogatella furcifera to rice plant volatiles” (PeerJ, 2019).
“And” between values parts separate entries of the source, which are not always exact repeats. Equal entries are not always repeated.

Key:
S. furcifera adults = test: Y-tube olfactometer behavioral trials; format: in vivo, Sogatella furcifera; details: odorant 50 µL/L vs hexane; adults
How it was run: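 Single S. furcifera adults (2 days post-emergence, starved 0.5 h) chose between odorant (100 µL of 50 µL/L on filter paper) and hexane control in a glass Y-tube, charcoal-filtered humidified air 300 mL/min per arm, 25 ± 1 °C, 50% RH. Choice scored if insect passed half an arm and stayed >1 min within 10 min; 45 insects per compound, chi-squared test.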

SfurOBP11 = SfurOBP11 (Sogatella furcifera, UniProt V5T6E3); test: biochemical; format: binding
Chain of SfurOBP11 (V5T6E3 entry or part of it): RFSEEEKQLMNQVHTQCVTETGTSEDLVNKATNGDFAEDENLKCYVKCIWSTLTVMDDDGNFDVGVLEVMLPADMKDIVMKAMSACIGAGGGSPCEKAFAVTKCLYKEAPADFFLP
How it was run: (§1)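 First, 2.0 µM protein in 50 mM Tris-HCl (pH 7.4) was titrated with 1-NPN to obtain K1-NPN. Then odorants (2–20 µM final) competed against 2.0 µM 1-NPN, with fluorescence (ex 337 nm) recorded after 2 min. Ki was computed from IC50 via Ki = IC50/(1 + [1-NPN]/K1-NPN).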

SfurOBP1 = SfurOBP1 (Sogatella furcifera, UniProt V5T8N5); test: biochemical; format: binding; details: for Fluorescence competitive binding assay, fluorescence intensity: OBP1, three replicate columns
Chain of SfurOBP1 (V5T8N5 entry or part of it): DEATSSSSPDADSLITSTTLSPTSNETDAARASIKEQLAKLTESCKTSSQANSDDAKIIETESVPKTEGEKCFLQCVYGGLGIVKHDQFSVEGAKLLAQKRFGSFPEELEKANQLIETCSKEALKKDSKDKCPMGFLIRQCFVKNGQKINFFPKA
How it was run: as §1

SfurOBP3 = SfurOBP3 (Sogatella furcifera, UniProt V5T818); test: biochemical; format: binding; details: for Fluorescence competitive binding assay, fluorescence intensity: OBP3, three replicate columns
Chain of SfurOBP3 (V5T818 entry or part of it): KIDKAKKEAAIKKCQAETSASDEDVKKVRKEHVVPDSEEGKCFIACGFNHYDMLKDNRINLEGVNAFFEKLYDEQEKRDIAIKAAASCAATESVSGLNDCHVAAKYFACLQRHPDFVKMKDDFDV
How it was run: as §1

SfurOBP2 = SfurOBP2 (Sogatella furcifera, UniProt V5T759); test: biochemical; format: binding
Chain of SfurOBP2 (V5T759 entry or part of it): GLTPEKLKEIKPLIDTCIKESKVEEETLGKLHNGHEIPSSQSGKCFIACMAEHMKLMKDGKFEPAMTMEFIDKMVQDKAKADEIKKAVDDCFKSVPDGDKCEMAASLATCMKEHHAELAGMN
How it was run: as §1

In the case of `O=Cc1ccccc1` [benzaldehyde], the “number of insects choosing hexane arm” value (S. furcifera adults) is reported as 10, the “number of insects choosing volatilies arm” value (S. furcifera adults) is reported as 7 and the “number of insects failed (no choice)” value (S. furcifera adults) is reported as 23. The IC50 (SfurOBP11) was > 20 µM, the “Fluorescence intensity, fluorescence competitive binding assay, OBP11” value (from here on “Fluorescence intensity … OBP11”) (SfurOBP11; ligand concentration 2, replicate 1) was 25700 and the “Fluorescence intensity … OBP11” value (SfurOBP11; ligand concentration 2, replicate 2) was 26420. For the same compound, the “Fluorescence intensity … OBP11” value (SfurOBP11; ligand concentration 2, replicate 3) was 26489, the “Fluorescence intensity … OBP11” value (SfurOBP11; ligand concentration 4, replicate 1) was 25103 and the “Fluorescence intensity … OBP11” value (SfurOBP11; ligand concentration 4, replicate 2) was 25939. The “Fluorescence intensity … OBP11” value (SfurOBP11; ligand concentration 4, replicate 3) was 26917, the “Fluorescence intensity … OBP11” value (SfurOBP11; ligand concentration 6, replicate 1) was 24540 and the “Fluorescence intensity … OBP11” value (SfurOBP11; ligand concentration 6, replicate 2) was 24263. For the same compound, the “Fluorescence intensity … OBP11” value (SfurOBP11; ligand concentration 6, replicate 3) was 26004, the “Fluorescence intensity … OBP11” value (SfurOBP11; ligand concentration 8, replicate 1) was 24810 and the “Fluorescence intensity … OBP11” value (SfurOBP11; ligand concentration 8, replicate 2) was 23717. The “Fluorescence intensity … OBP11” value (SfurOBP11; ligand concentration 8, replicate 3) was 25921, the “Fluorescence intensity … OBP11” value (SfurOBP11; ligand concentration 10, replicate 1) was 21750 and the “Fluorescence intensity … OBP11” value (SfurOBP11; ligand concentration 10, replicate 2) was 22655. For the same compound, the “Fluorescence intensity … OBP11” value (SfurOBP11; ligand concentration 10, replicate 3) was 24544, the “Fluorescence intensity … OBP11” value (SfurOBP11; ligand concentration 12, replicate 1) was 22377 and the “Fluorescence intensity … OBP11” value (SfurOBP11; ligand concentration 12, replicate 2) was 22204. For the same compound, the “Fluorescence intensity … OBP11” value (SfurOBP11; ligand concentration 12, replicate 3) was 22549, the “Fluorescence intensity … OBP11” value (SfurOBP11; ligand concentration 14, replicate 1) was 20889 and the “Fluorescence intensity … OBP11” value (SfurOBP11; ligand concentration 14, replicate 2) was 20823. The “Fluorescence intensity … OBP11” value (SfurOBP11; ligand concentration 14, replicate 3) was 20954, the “Fluorescence intensity … OBP11” value (SfurOBP11; ligand concentration 16, replicate 1) was 18305 and the “Fluorescence intensity … OBP11” value (SfurOBP11; ligand concentration 16, replicate 2) was 18429. The “Fluorescence intensity … OBP11” value (SfurOBP11; ligand concentration 16, replicate 3) was 20008, the “Fluorescence intensity … OBP11” value (SfurOBP11; ligand concentration 18, replicate 1) was 18084 and the “Fluorescence intensity … OBP11” value (SfurOBP11; ligand concentration 18, replicate 2) was 18788. The “Fluorescence intensity … OBP11” value (SfurOBP11; ligand concentration 18, replicate 3) was 18463, the “Fluorescence intensity … OBP11” value (SfurOBP11; ligand concentration 20, replicate 1) was 17844 and the “Fluorescence intensity … OBP11” value (SfurOBP11; ligand concentration 20, replicate 2) was 18414. For the same compound, the “Fluorescence intensity … OBP11” value (SfurOBP11; ligand concentration 20, replicate 3) was 17540, the IC50 (SfurOBP1) was > 20 µM and the “Fluorescence competitive binding assay, fluorescence intensity” value (SfurOBP1; ligand concentration 2 (μM)) was 6748 and 7004 and 6492. The “Fluorescence competitive binding assay, fluorescence intensity” value (SfurOBP1; ligand concentration 4 (μM)) was 7245 and 7115 and 7374, the “Fluorescence competitive binding assay, fluorescence intensity” value (SfurOBP1; ligand concentration 6 (μM)) was 6061 and 6132 and 7040 and the “Fluorescence competitive binding assay, fluorescence intensity” value (SfurOBP1; ligand concentration 8 (μM)) was 7119 and 7198 and 8488. For the same compound, the “Fluorescence competitive binding assay, fluorescence intensity” value (SfurOBP1; ligand concentration 10 (μM)) was 6689 and 6820 and 6663, the “Fluorescence competitive binding assay, fluorescence intensity” value (SfurOBP1; ligand concentration 12 (μM)) was 6039 and 7567 and 5952 and the “Fluorescence competitive binding assay, fluorescence intensity” value (SfurOBP1; ligand concentration 14 (μM)) was 5985 and 6868 and 6969. For the same compound, the “Fluorescence competitive binding assay, fluorescence intensity” value (SfurOBP1; ligand concentration 16 (μM)) was 5390 and 5637 and 6081, the “Fluorescence competitive binding assay, fluorescence intensity” value (SfurOBP1; ligand concentration 18 (μM)) was 7493 and 9048 and 6239 and the “Fluorescence competitive binding assay, fluorescence intensity” value (SfurOBP1; ligand concentration 20 (μM)) was 8583 and 7861 and 5961. The IC50 (SfurOBP3) was > 20 µM, the “Fluorescence competitive binding assay, fluorescence intensity” value (SfurOBP3; ligand concentration 2) was 45330 and 44709 and 45950 and the “Fluorescence competitive binding assay, fluorescence intensity” value (SfurOBP3; ligand concentration 4) was 42404 and 44063 and 46652. The “Fluorescence competitive binding assay, fluorescence intensity” value (SfurOBP3; ligand concentration 6) was 42957 and 46006 and 45764, the “Fluorescence competitive binding assay, fluorescence intensity” value (SfurOBP3; ligand concentration 8) was 41484 and 44807 and 44761 and the “Fluorescence competitive binding assay, fluorescence intensity” value (SfurOBP3; ligand concentration 10) was 42296 and 40919 and 43670. The “Fluorescence competitive binding assay, fluorescence intensity” value (SfurOBP3; ligand concentration 12) was 40362 and 40474 and 40259, the “Fluorescence competitive binding assay, fluorescence intensity” value (SfurOBP3; ligand concentration 14) was 36140 and 35545 and 34940 and the “Fluorescence competitive binding assay, fluorescence intensity” value (SfurOBP3; ligand concentration 16) was 32608 and 31985 and 31371. The “Fluorescence competitive binding assay, fluorescence intensity” value (SfurOBP3; ligand concentration 18) was 31185 and 31705 and 30913, the “Fluorescence competitive binding assay, fluorescence intensity” value (SfurOBP3; ligand concentration 20) was 30533 and 30370 and 31330 and the IC50 (SfurOBP2) was > 20 µM. The “Fluorescence competitive binding assay, OBP2 (raw fluorescence reading)” value (SfurOBP2; ligand concentration 2 (unit not given), replicate column 1 of 3) was 15507, the “Fluorescence competitive binding assay, OBP2 (raw fluorescence reading)” value (SfurOBP2; ligand concentration 2 (unit not given), replicate column 2 of 3) was 14848 and the “Fluorescence competitive binding assay, OBP2 (raw fluorescence reading)” value (SfurOBP2; ligand concentration 2 (unit not given), replicate column 3 of 3) was 15027. For the same compound, the “Fluorescence competitive binding assay, OBP2 (raw fluorescence reading)” value (SfurOBP2; ligand concentration 4 (unit not given), replicate column 1 of 3) was 14937, the “Fluorescence competitive binding assay, OBP2 (raw fluorescence reading)” value (SfurOBP2; ligand concentration 4 (unit not given), replicate column 2 of 3) was 13962 and the “Fluorescence competitive binding assay, OBP2 (raw fluorescence reading)” value (SfurOBP2; ligand concentration 4 (unit not given), replicate column 3 of 3) was 14585. For the same compound, the “Fluorescence competitive binding assay, OBP2 (raw fluorescence reading)” value (SfurOBP2; ligand concentration 6 (unit not given), replicate column 1 of 3) was 13559, the “Fluorescence competitive binding assay, OBP2 (raw fluorescence reading)” value (SfurOBP2; ligand concentration 6 (unit not given), replicate column 2 of 3) was 14529 and the “Fluorescence competitive binding assay, OBP2 (raw fluorescence reading)” value (SfurOBP2; ligand concentration 6 (unit not given), replicate column 3 of 3) was 14868. For the same compound, the “Fluorescence competitive binding assay, OBP2 (raw fluorescence reading)” value (SfurOBP2; ligand concentration 8 (unit not given), replicate column 1 of 3) was 13310, the “Fluorescence competitive binding assay, OBP2 (raw fluorescence reading)” value (SfurOBP2; ligand concentration 8 (unit not given), replicate column 2 of 3) was 14622 and the “Fluorescence competitive binding assay, OBP2 (raw fluorescence reading)” value (SfurOBP2; ligand concentration 8 (unit not given), replicate column 3 of 3) was 14449. The “Fluorescence competitive binding assay, OBP2 (raw fluorescence reading)” value (SfurOBP2; ligand concentration 10 (unit not given), replicate column 1 of 3) was 13559, the “Fluorescence competitive binding assay, OBP2 (raw fluorescence reading)” value (SfurOBP2; ligand concentration 10 (unit not given), replicate column 2 of 3) was 13459 and the “Fluorescence competitive binding assay, OBP2 (raw fluorescence reading)” value (SfurOBP2; ligand concentration 10 (unit not given), replicate column 3 of 3) was 14101. The “Fluorescence competitive binding assay, OBP2 (raw fluorescence reading)” value (SfurOBP2; ligand concentration 12 (unit not given), replicate column 1 of 3) was 13500, the “Fluorescence competitive binding assay, OBP2 (raw fluorescence reading)” value (SfurOBP2; ligand concentration 12 (unit not given), replicate column 2 of 3) was 13742 and the “Fluorescence competitive binding assay, OBP2 (raw fluorescence reading)” value (SfurOBP2; ligand concentration 12 (unit not given), replicate column 3 of 3) was 13318. The “Fluorescence competitive binding assay, OBP2 (raw fluorescence reading)” value (SfurOBP2; ligand concentration 14 (unit not given), replicate column 1 of 3) was 12764, the “Fluorescence competitive binding assay, OBP2 (raw fluorescence reading)” value (SfurOBP2; ligand concentration 14 (unit not given), replicate column 2 of 3) was 13284 and the “Fluorescence competitive binding assay, OBP2 (raw fluorescence reading)” value (SfurOBP2; ligand concentration 14 (unit not given), replicate column 3 of 3) was 13618. The “Fluorescence competitive binding assay, OBP2 (raw fluorescence reading)” value (SfurOBP2; ligand concentration 16 (unit not given), replicate column 1 of 3) was 12066, the “Fluorescence competitive binding assay, OBP2 (raw fluorescence reading)” value (SfurOBP2; ligand concentration 16 (unit not given), replicate column 2 of 3) was 12546 and the “Fluorescence competitive binding assay, OBP2 (raw fluorescence reading)” value (SfurOBP2; ligand concentration 16 (unit not given), replicate column 3 of 3) was 12131. The “Fluorescence competitive binding assay, OBP2 (raw fluorescence reading)” value (SfurOBP2; ligand concentration 18 (unit not given), replicate column 1 of 3) was 11847, the “Fluorescence competitive binding assay, OBP2 (raw fluorescence reading)” value (SfurOBP2; ligand concentration 18 (unit not given), replicate column 2 of 3) was 12489 and the “Fluorescence competitive binding assay, OBP2 (raw fluorescence reading)” value (SfurOBP2; ligand concentration 18 (unit not given), replicate column 3 of 3) was 12075. For the same compound, the “Fluorescence competitive binding assay, OBP2 (raw fluorescence reading)” value (SfurOBP2; ligand concentration 20 (unit not given), replicate column 1 of 3) was 11984, the “Fluorescence competitive binding assay, OBP2 (raw fluorescence reading)” value (SfurOBP2; ligand concentration 20 (unit not given), replicate column 2 of 3) was 12356 and the “Fluorescence competitive binding assay, OBP2 (raw fluorescence reading)” value (SfurOBP2; ligand concentration 20 (unit not given), replicate column 3 of 3) was 11918.
